1 molecule from US20180134788A1, “Methods and Pharmaceutical Compositions (NTSR1 Inhibitors) for the Treatment of Hepatocellular Carcinomas” (INSERM (Institut National de la Sante et de la Recherche …, priority 2015, published 2018) can be followed below.

SMILES strings stand for the structures.

Common to all, as to assay type: cell-based
Assay [1] relates to EGFR expression in PLC/PRF5 and HEP3B cells. As to the kind of experiment: EGFR immunocytochemistry labeling in HCC cell lines. The procedure: (§1) (A) Typical immunocytochemistry labeling for NTSR1 (Top) and EGFR (Bottom) in PLC/RF5 and HEP 3B cells treated or not with 1 μM SB216763 or 5 μM SR4892 or both for 48 h. (B and C) Representative western blot analyses of Tyr 1173 phosphorylated EGFR, EGFR, and actin of HEP 3B and PLC/RF5 treated as indicate above.
(§2) It was previously shown that the NTS/NTSR1 complex potentiates EGF signaling in liver, colon, prostate, lung, and breast cancer. We investigated the possible relation between NTSR1 expression and EGFR expression and activation. […] Treatment with SR48692, a specific NTSR1 antagonist, decreased the expression of EGFR, whereas NTSR1 expression was not altered. When the combined treatment with SB216763 and SR48692 is used, the effect of SB216763 on EFGR expression is limited by the presence of the NTSR1 antagonist (FIG. 5A).

Assay [2] concerns NTSR1 expression in HEP 3B and PLC/PRF5 cells. As to the kind of experiment: NTSR1 immunocytochemistry labeling in HCC cell lines. The note with it: PLC/PRF5 and HEP3B, 48 h; 1 μM SB216763 or 5 μM SR48692. The procedure:
(A) NTS, NTSR2, NTSR3, and NTSR1 transcript analysis from 400 ng of HuH7, HEP 3B, and PLC/RF5, total RNA. NTSR1 A and NTSR1 B show the amplicon from two different set of primers. (B) Typical immunocytochemistry labeling for NTSR1 and DAPI in HEP 3B and PLC/RF5 cells. Cells were seeded on glass slides, grown for 48 h, and immunocytochemistry was performed as described in the Materials and Methods section. (C) NTSR1 transcript analysis from HuH7, HEP 3B and PLC/RF5 of total RNA from cells treated or not with […] LiCl for 6 h. (D) Typical immunocytochemistry NTSR1 labeling of HEP 3B and PLC/RF5 cells treated with 1 μM SB 216763 for 6 h.
as §1
Among the three cell lines studied, only PLC/PRF5 cells presented a dysregulation in the beta catenin pathway with a deletion in Axin (E4/−). […] We previously hypothesized that NTSR1 expression was correlated with deregulated wnt/beta catenin pathways. To evaluate this hypothesis, we forced the cellular and nuclear relocation of β-catenin in these cells lines with the LiCl, and an inhibitor of the glycogen synthase kinase (GSK) 3β, the SB216763. LiCl and SB216763 are known to decrease the degradation of β-catenin by inhibiting GSK-3 and promoting the accumulation of β-catenin in the cytoplasm of liver cancer cells.
as §2

Assay [3] concerns PLC-R1a and PLC-R2a cells. Nature of the assay: Migration assay on type 1 collagen, PLC/PRF5 NTSR1 overexpressing clones. The note with it: 5 μM SR 48692, vs DMSO. The procedure: (A) Speed of migration on type 1 collagen of HEP 3B and NTSR1 overexpressing clones treated or not with 1/100 NTS or 1/100 Long Fragment NTS antibody. Results represent the mean±SEM of 5 independent experiments. (B) Speed of migration on type 1 collagen of PLC/RF5 and NTSR1 overexpressing clones in the presence or not of 5 μM SR 48692. Results represent the mean±SEM of 3 independent experiments. (C) Numbers of invasive cells crossing the type I collagen in Boyden chamber when HEP 3B and NTSR1 overexpressing clones were treated or not with NTS or Long Fragment NTS antibody or 5 μM. SR 48692. Results are expressed relatively to wild type cells and represent the mean±SEM of 5 to 7 independent experiments.
Migration assays were used to evaluate the effect of NTS/NTSR1 on cancer cell migration, another hallmark contributing to the invasion and metastasis of cancers. The procedure described in the methods section allows the comparison of the migration speed between both cell lines at the same time over a period of 48 h, and on the intact type I collagen matrix. […] Similar observations were made with PLC/PRF5 cells and derivative clones.

Assay [4] concerns phosphorylated-EGFR in HEP 3B and PLC/RF5 cells. As to the kind of experiment: Western blot of Tyr 1173 phosphorylated EGFR in HCC cell lines. The note with it: both cell lines, SR 48692 added to SB216763 treatment. The procedure:
as §1
In both cell lines, phosphorylated-EGFR was increased under SB216763 treatment this increase was abolished when SR 48692 was added to the treatment.

As to `COc1cccc(OC)c1-c1cc(C(=O)NC2(C(=O)O)C3CC4CC(C3)CC2C4)nn1-c1ccnc2cc(Cl)ccc12` (stereo not drawn) [SR48692], in assay [1] (PLC/PRF5 and HEP3B, 48 h, 1 μM SB216763 or 5 μM SR48692), the EGFR expression entry is given as “decreased”. The “effect of SB216763 on EGFR expression in presence of the NTSR1 antagonist” value in assay [1] (combined treatment 1 μM SB216763 and 5 μM SR48692, 48 h) was “limited”. Also, the NTSR1 expression entry in assay [2] is listed as “not altered”. Further, the “decrease of migration speed” value in assay [3] (PLC-R1a cells) is 27%; in assay [3] (PLC-R2a cells), 33%. The “SB216763-induced increase of phosphorylated-EGFR” value in assay [4] is listed as “abolished”.
